Measured values: publication PMC11650737, “Developing MYC Degraders Bearing the Von Hippel–Lindau Ligand to Target the “Undruggable” MYC” (ACS Pharmacology & Translational Science, 2024)

Legend:
[1] = target: T1, recombinant bHLH-MYC protein (Homo sapiens, UniProt P01106); experiment: Direct binding to MYC by microscale thermophoresis (MST); details: compound 200 μM, labeled MYC 25 nM
T1 construct: The recombinant bHLHZ-Myc protein carrying an aminoterminal His6-tag; made in house; host or cells: bacteria
Procedure: To investigate the capacity of MYC degraders to directly bind to MYC, microscale thermophoresis (MST) experiments were performed using recombinant bHLH-MYC protein. MST is a very sensitive, recently developed method based on the shift of fluorescent molecules moving in a temperature gradient that can be perturbed by interactions with other molecules. In this binding assay, a His6-tagged bHLH-MYC protein was fluorescently labeled via its hexa-histidine tag and subjected to MST measurement in the absence and in the presence of MYC degraders. All compounds tested shifted MYC thermophoresis (Figure 4), as shown by normalized fluorescence values, a clear indication that they bound directly to MYC. MST experiments were also run under identical conditions using two reference Myc inhibitors as positive controls: the biphenyl pyrazole MYCi361 and a thiazolidinone derivative, 10058-F4. Both are well-characterized MYC binders: The first one has been used as a POI ligand for the PROTACs designed and synthesized in this work, and the latter is widely known to inhibit MYC by specifically disrupting the MYC–Max complex formation.
Figure 4 Assay of direct binding to MYC by microscale thermophoresis (MST): MST of fluorescently labeled MYC (25 nM) mixed with several MYC degraders (200 μM) or the solvent alone (DMSO). MST of MYC binders 10058-F4 and MYCi361 used as positive controls. Data are shown as mean ± SEM.
Microscale thermophoresis (MST) assay was used to determine whether PROTACs bind directly to MYC. The recombinant bHLHZ-Myc protein carrying an aminoterminal His6-tag was expressed in bacteria from a plasmid kindly provided by George Sianidis (BRFAA, Greece) and purified, as previously described,[33] with minor modifications. […] MST was measured using a Monolith NT.115Pico with a red filter at an ambient temperature of 25 °C. […] Results were analyzed using the software provided with the Monolith instrument. Data are reported as ΔFnorm, which results from subtracting the normalized fluorescence value (Fnorm) of MYC in the absence of PROTAC from Fnorm in excess of PROTAC (bound state).

PC3 cells = experiment: Cell viability (MTT) assay, PC3; format: cell-based, human; details: Homo sapiens, PC-3, 72 h, read-out: IC50 (antiproliferative effect)
Procedure: The antiproliferative activity of the synthesized compounds was tested in cell viability assays optimally set up for various cancer cell lines (results are depicted in Table 2, n = 3, average IC50 (μM) ± SD).
Cells were plated at a density of 5 × 10^3 cells per well on 96-well plates. After 24 h of incubation (37 °C, 5% CO2), the cell medium was removed, and compounds were added at selected concentrations (0.1–100 μM), followed by incubation for 72 h. Control cells were treated with 0.4% DMSO medium to match the conditions in the wells where drugs were added. After 72 h, the medium was removed, and the 3-(4,5-dimethylthiazol-2-yl)-2,5-diphenyltetrazolium bromide (MTT) solution (0.3 mg/mL in PBS) was added to cells for 3 h under no light conditions. The MTT solution was removed, and the formazan crystals were dissolved in 100 μL of DMSO. The optical density was measured at 570 nm with a reference wavelength of 690 nm using an absorbance microplate reader (SpectraMax 190, Molecular Devices, Sunnyvale, CA, USA). The half-maximal inhibitory concentration (IC50) was calculated based on a four-parameter logistic equation, generating a cell viability curve, using GraphPad Prism 6.01 (GraphPad Software, Inc.). Two concentrations of an established drug, Docetaxel (100 nM and 1 nM), were used in each experiment as a positive control. The resulting absorbance values were used instead of IC50 calculation. Each point was the result of three independent experiments performed in triplicate.

T1 sequence (P01106 368-452 limits assumed): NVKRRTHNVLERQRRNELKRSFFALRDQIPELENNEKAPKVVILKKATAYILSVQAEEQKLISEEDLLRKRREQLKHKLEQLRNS

direct binding to MYC (shift of MYC thermophoresis) [1]	IC50 (PC3 cells)	SMILES
equally potent	18 ± 7 µM	Cc1ncsc1-c1ccc(CNC(=O)[C@@H]2C[C@@H](O)CN2C(=O)[C@@H](NC(=O)CCC(=O)NCCCOc2ccc(-c3cc(C(F)(F)F)nn3C)c(O)c2-c2cc(C(F)(F)F)cc(C(F)(F)F)c2)C(C)(C)C)cc1 [CSI86]
equally potent	13 ± 7 µM	Cc1ncsc1-c1ccc(CNC(=O)[C@@H]2C[C@@H](O)CN2C(=O)[C@@H](NC(=O)CCCC(=O)NCCCOc2ccc(-c3cc(C(F)(F)F)nn3C)c(O)c2-c2cc(C(F)(F)F)cc(C(F)(F)F)c2)C(C)(C)C)cc1 [CSI107]
equally potent	25 ± 2 µM	Cc1ncsc1-c1ccc(CNC(=O)[C@@H]2C[C@@H](O)CN2C(=O)[C@@H](NC(=O)COCCOCC(=O)NCCCOc2ccc(-c3cc(C(F)(F)F)nn3C)c(O)c2-c2cc(C(F)(F)F)cc(C(F)(F)F)c2)C(C)(C)C)cc1 [CSI135]
